From patent US10183912B2, “HDMX inhibitors and their use for cancer treatment” (priority 2014, dated 2019)
Like-named read-outs stand apart in the source and are kept apart here.

Key:
[1] = system: OCI cell line; experiment: IC50 / cell killing activity on OCI cell line; assay type: cell-based
[2] = target: T1, GST-HDMX (Homo sapiens, UniProt O15151); details: immunoprecipitation / streptavidin pull-down
T1 sequence (O15151 1-490): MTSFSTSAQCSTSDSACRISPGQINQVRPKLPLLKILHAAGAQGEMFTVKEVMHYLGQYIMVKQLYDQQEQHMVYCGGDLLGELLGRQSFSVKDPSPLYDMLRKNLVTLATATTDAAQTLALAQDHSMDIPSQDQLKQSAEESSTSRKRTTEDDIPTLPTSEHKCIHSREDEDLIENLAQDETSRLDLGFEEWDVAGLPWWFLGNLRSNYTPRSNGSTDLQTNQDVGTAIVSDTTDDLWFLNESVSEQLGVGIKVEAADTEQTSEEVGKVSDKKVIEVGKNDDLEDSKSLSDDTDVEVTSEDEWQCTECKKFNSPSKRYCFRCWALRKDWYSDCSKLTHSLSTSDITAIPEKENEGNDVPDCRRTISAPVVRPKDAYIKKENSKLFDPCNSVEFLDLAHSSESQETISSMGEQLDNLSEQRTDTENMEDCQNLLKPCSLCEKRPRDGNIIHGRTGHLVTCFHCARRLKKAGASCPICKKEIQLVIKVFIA

[3] = target: T2, HDMX/p53 (Homo sapiens, UniProt O15151); experiment: ELISA of recombinant HDMX/p53 interaction; assay type: biochemical
T2 sequence (O15151 1-490): T1 sequence (O15151 1-490)

[4] = target: HDM2/p53 (Homo sapiens, UniProt Q00987); experiment: ELISA of recombinant HDM2/p53 interaction; assay type: biochemical
Chain of HDM2/p53 (Q00987 whole entry): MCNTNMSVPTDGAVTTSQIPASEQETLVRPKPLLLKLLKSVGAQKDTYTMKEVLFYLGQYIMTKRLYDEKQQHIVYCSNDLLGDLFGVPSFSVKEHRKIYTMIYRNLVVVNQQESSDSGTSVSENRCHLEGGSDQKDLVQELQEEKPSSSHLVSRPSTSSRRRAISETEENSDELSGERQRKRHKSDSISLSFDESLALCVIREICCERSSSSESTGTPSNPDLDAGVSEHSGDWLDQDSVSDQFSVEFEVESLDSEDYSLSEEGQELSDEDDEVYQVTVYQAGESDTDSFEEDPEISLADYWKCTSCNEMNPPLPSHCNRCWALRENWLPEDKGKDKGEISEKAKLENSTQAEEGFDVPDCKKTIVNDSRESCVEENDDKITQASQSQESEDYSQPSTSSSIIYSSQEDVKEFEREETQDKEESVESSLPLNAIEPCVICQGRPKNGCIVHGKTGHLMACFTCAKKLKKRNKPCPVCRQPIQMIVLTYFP

[5] = target: T3, P53-HDMX (Homo sapiens, UniProt O15151); experiment: Co-immunoprecipitation of P53 and HDMX; assay type: biochemical; details: compared to DMSO and Nutlin
T3 sequence (O15151 1-490): T1 sequence (O15151 1-490)

[6] = system: OCI-AML3 (OCI) cells overexpressing HDMX; experiment: Cell killing of OCI cells overexpressing HDMX versus parental cells; assay type: cell-based; details: 72 hr trypan blue
[7] = system: HCT116 p53-wild-type cells; experiment: Cell cycle analysis by PI staining, HCT116 p53-wild-type cells; assay type: cell-based; details: after 24 hr of treatment with CTX1 (2 μM); decrease from 20%
[8] = system: HCT116 p53-null cells; experiment: Cell cycle analysis by PI staining, HCT116 p53-null cells; assay type: cell-based; details: after 24 hr of treatment with CTX1 (2 μM); reduction from 25%
[9] = system: primary human AML cells; experiment: Survival of NSG mice injected with primary human AML cells; assay type: in vivo
[10] = system: IMR90 cells; experiment: Cell death (trypan blue) in IMR90 fibroblast model with HDMX, HDM2 or shp53; assay type: cell-based; details: 72 hr
[11] = system: GST-FXR; assay type: binding; details: immunoprecipitation / streptavidin pull-down
[12] = system: HCT116 p53-wild type cells; experiment: Annexin-V staining for apoptosis, HCT116 p53-wild type cells; assay type: cell-based; details: combination of CTX1 (3 μM) and nutlin-3 (5 μM), 72 hr
[13] = system: HCT116 p53-null cells; experiment: Annexin-V staining for apoptosis, HCT116 p53-null cells; assay type: cell-based; details: combination of CTX1 (3 μM) and nutlin-3 (5 μM), 72 hr
[14] = system: MCF7 cells; details: CTX1 3 μM
[15] = target: T4, HDMX (Homo sapiens, UniProt O15151); experiment: Surface plasmon resonance binding to immobilized recombinant HDMX; details: doses up to 12.5 μM
T4 sequence (O15151 1-490): T1 sequence (O15151 1-490)

[16] = target: T4, HDMX; experiment: Spectral (absorbance) studies after size exclusion chromatography with HDMX; assay type: binding; details: absorbance pattern after removal of free compound

N#Cc1ccc(Nc2c3ccccc3nc3ccccc23)cc1 [INVA3Z-29-2]
IC50 ([1]; OCI cell line, read-out: IC 50): > 8 µM

O=C(O)CCCC[C@@H]1SC[C@@H]2NC(=O)N[C@@H]21 [Biotin]
direct interaction with GST-HDMX [2]: not to bind with HDMX

O=C(CCCCC1SCC2NC(=O)NC21)Nc1ccc(Nc2c3ccccc3nc3ccccc23)cc1 (centres unmarked) [INVA3Z-31-1]
IC50 ([1]; read-out: IC 50): 11.9 µM

Nc1ccc2cc3ccc(N)c(-c4ccccc4)c3nc2c1-c1ccccc1 [INVA3Z-52-2]
IC50 ([1]; OCI cell line, read-out: IC 50): 3.4 µM

CC(=O)Nc1ccc(Nc2c3ccc([N+](=O)[O-])cc3nc3cc([N+](=O)[O-])ccc23)cc1 [INVA3Z-50-2]
IC50 [1]: 1.4 µM | disruption of HDMX/p53 interaction [3]: Identical results were obtained | disruption of HDM2/p53 interaction [4]: Identical results were obtained | disruption of P53-HDMX protein interaction [5]: disrupts

Cc1c([N+](=O)[O-])ccc2c(Cl)c3ccc([N+](=O)[O-])cc3nc12 [INVA3Z-63-1]
IC50 [1]: > 15 µM

Nc1ccc(Nc2c3ccc([N+](=O)[O-])cc3nc3cc([N+](=O)[O-])ccc23)cc1 [INVA3Z-42-1]
IC50 ([1]; read-out: IC 50): 0.13 µM

N#Cc1c2ccccc2nc2ccccc12 [INVA3Z-6-3]
IC50 ([1]; OCI cell line, read-out: IC 50): 13.4 µM

N#Cc1c2ccc([N+](=O)[O-])cc2nc2cc([N+](=O)[O-])ccc12 [INVA3Z-6-1]
IC50 [1]: 14.1 µM

Nc1ccc2cc3ccc(N)c(I)c3nc2c1 [INVA3Z-46-2]
IC50 ([1]; OCI cell line, read-out: IC 50): 7.9 µM

Nc1ccc(Nc2c3ccccc3nc3cc([N+](=O)[O-])ccc23)cc1 [INVA3Z-32-1]
IC50 ([1]; OCI cell line, read-out: IC 50): 4.8 µM

[N-]=[N+]=NCCCS(=O)(=O)Nc1ccc(Nc2c3ccccc3nc3ccccc23)cc1 [INVA3Z-13-1]
IC50 ([1]; OCI cell line, read-out: IC 50): 9.9 µM

COc1ccc(C2=N[C@@H](c3ccc(Cl)cc3)[C@@H](c3ccc(Cl)cc3)N2C(=O)N2CCNC(=O)C2)c(OC(C)C)c1 [nutlin-3]
sensitivity to cell killing versus parental cells [6]: reduced activity

Cc1ccc2nc3cc([N+](=O)[O-])ccc3c(Nc3ccc(N)cc3)c2c1[N+](=O)[O-] [INVA3Z-65-2]
IC50 [1]: 11.5 µM

Nc1ccc(Nc2c3ccccc3[n+]([O-])c3ccccc23)cc1 [INVA3Z-41-2]
IC50 ([1]; OCI cell line, read-out: IC 50): 14.3 µM

CC(=O)Nc1cccc(Nc2c3ccccc3nc3ccccc23)c1 [INVA3Z-39-1]
IC50 ([1]; OCI cell line, read-out: IC 50): 12.1 µM

N#Cc1c2ccc(N)cc2nc2cc(N)ccc12 [CTX1]
S phase [7]: 4% | S phase [8]: 15% | survival time ([9]; CTX1 (30 mg/kg i.p.) in combination with nutlin-3 (200 mg/kg p.o.)): significantly increased survival time | survival of mice ([9]; single agent, 30 mg/kg i.p.): significantly enhanced the survival | disruption of HDM2/p53 interaction [4]: not HDM2/p53 | cell death ([10]; HDMX-expressing cells (Vector or HDMX), 1, 2.5 and 5 μM): induced significant p53-dependent cell death | cell death ([10]; cells with HDM2 overexpression or p53 knocked down by shRNA): not cells in which p53 is inactivated by HDM2 overexpression | direct interaction with GST-FXR [11]: not unrelated proteins such as GST-FXR | induction of apoptosis [12]: synergistic induction of apoptosis | induction of apoptosis [13]: not p53-null cells | p53 induction [14]: induces p53 rapidly

O=[N+]([O-])c1ccc2c(Cl)c3ccccc3nc2c1 [INVA3Z-28-1]
IC50 ([1]; OCI cell line, read-out: IC 50): 7.8 µM

Nc1ccc(Nc2c3ccc([N+](=O)[O-])cc3nc3cc([N+](=O)[O-])ccc23)cc1N [INVA3Z-66-1]
IC50 [1]: > 15 µM

Cc1c([N+](=O)[O-])ccc2c(Nc3ccc(N)cc3)c3ccc([N+](=O)[O-])cc3nc12 [INVA3Z-63-2]
IC50 [1]: > 15 µM

CC(=O)Nc1ccc2c(Cl)c3ccccc3nc2c1 [INVA3Z-40-1]
IC50 ([1]; OCI cell line, read-out: IC 50): 13.2 µM

Nc1cccc(Nc2c3ccccc3nc3ccccc23)c1 [INVA3Z-38-1]
IC50 ([1]; OCI cell line, read-out: IC 50): 11.8 µM

[N-]=[N+]=Nc1c2ccccc2nc2ccccc12 [INVA3Z-55-1]
IC50 ([1]; OCI cell line, read-out: IC 50): 3.2 µM

Nc1ccn([C@@H]2O[C@H](CO)[C@@H](O)[C@@H]2O)c(=O)n1 [cytarabine, reference compound]
efficacy in this model system ([9]; standard AML therapeutic): does not demonstrate efficacy

[O-][n+]1c2ccccc2c(Cl)c2ccccc21 [INVA3Z-41-1]
IC50 ([1]; OCI cell line, read-out: IC 50): > 15 µM

O=C(CCl)Nc1c2ccccc2nc2ccccc12 [INVA3Z-17-2]
IC50 ([1]; OCI cell line, read-out: IC 50): 13.6 µM

O=[N+]([O-])c1ccc2c(Cl)c3cc([N+](=O)[O-])ccc3nc2c1 [INVA3Z-58-1]
IC50 [1]: > 15 µM

ClCCN(CCCl)c1c2ccccc2nc2ccccc12 [INVA3Z-29-1]
IC50 [1]: > 8 µM

Nc1ccc(Nc2c3ccccc3nc3cc(N)ccc23)cc1 [INVA3Z-32-2]
IC50 ([1]; OCI cell line, read-out: IC 50): 4.7 µM

CC(=O)Nc1ccc2c(Nc3ccc(N)cc3)c3ccccc3nc2c1 [INVA3Z-40-2]
IC50 ([1]; OCI cell line, read-out: IC 50): 13.9 µM

O=C(CCCCC1SCC2NC(=O)NC21)Nc1ccc(Nc2c3ccc([N+](=O)[O-])cc3nc3cc([N+](=O)[O-])ccc23)cc1 (centres unmarked) [INVA3Z-48-2]
IC50 [1]: 8.2 µM

Nc1ccc(Nc2c3ccccc3nc3ccccc23)c(N)c1 [INVA3Z-61-2]
IC50 ([1]; OCI cell line, read-out: IC 50): 4.3 µM

Nc1ccc2cc3ccc(N)c(-c4ccccc4)c3nc2c1I [INVA3Z-52-3]
IC50 ([1]; OCI cell line, read-out: IC 50): 7.8 µM

OCCNc1ccc(Nc2c3ccccc3nc3ccccc23)cc1 [INVA3Z-19-1]
IC50 ([1]; OCI cell line, read-out: IC 50): 5.8 µM

Nc1c2ccccc2nc2ccccc12 [9-AA, 9-aminoacridine]
binding to HDMX using SPR [15]: did not demonstrate any binding | binding to HDMX by spectral studies [16]: not observed

O=[N+]([O-])c1ccc2c(Cl)c3ccc([N+](=O)[O-])cc3nc2c1 [INVA3Z-1-1]
IC50 [1]: 13.5 µM

Nc1ccc(Nc2c3ccccc3nc3ccccc23)cc1 [INVA3Z-5-2]
IC50 ([1]; OCI cell line, read-out: IC 50): 4.7 µM

CC(=O)Nc1ccc(Nc2c3ccccc3nc3ccccc23)cc1 [INVA3Z-36-1]
IC50 ([1]; OCI cell line, read-out: IC 50): 4.9 µM

O=S(=O)(CCCOCc1ccccc1)Nc1ccc(Nc2c3ccccc3nc3ccccc23)cc1 [INVA3Z-10-1]
IC50 ([1]; OCI cell line, read-out: IC 50): 9.8 µM
